In patent US20250388553A1 (Incyte Corporation, priority 2018, published 2025):
Counter-ions that a name gives are not always drawn.

Assays:
[1] = target: PI3Kδ (p1106/p85a) Recombinant Human Protein (Homo sapiens (Human), UniProt O00329); assay: PI3Kδ scintillation proximity assay; format: biochemical; conditions: scintillation proximity assay, recombinant human PI3Kδ
From the text: Example C. PI3Kδ Scintillation Proximity Assay
(§1) Materials: [γ-^33P]ATP (10 mCi/mL) and Wheat Germ Agglutinin (WGA) YSi SPA Scintillation Beads was purchased from Perkin Elmer (Waltham, MA). Lipid kinase substrate, D-myo-Phosphatidylinositol 4,5-bisphosphate (PtdIns(4,5)P2)D (+)-sn-1,2-di-O-octanoylglyceryl, 3-O-phospho linked (PIP2), CAS 204858-53-7, was purchased from Echelon Biosciences (Salt Lake City, UT). PI3Kδ (p1106/p85a) Recombinant Human Protein was purchased from Eurofins (St Charles, MO). ATP, MgCl2, DTT, EDTA, MOPS and CHAPS were purchased from Sigma Aldrich (St. Louis, MO).
(§2) The kinase reaction was conducted in polystyrene 384-well Greiner Bio-one white plate from Thermo Fisher Scientific in a final volume of 25 μL. Inhibitors were first diluted serially in DMSO and added to the plate wells before the addition of other reaction components. The final concentration of DMSO in the assay was 2%. The PI3Kδ assay was carried out at room temperature in 20 mM MOPS, pH 6.7, 10 mM MgCl2, 5 mM DTT and CHAPS 0.03%. Reactions were initiated by the addition of ATP, the final reaction mixture consisted of 20 µM […], 0.5 μCi [γ-^33P]ATP, 3.4 nM PI3Kδ. Reactions were incubated for 120 min and terminated by the addition of 40 μL SPA beads suspended in quench buffer: 163 mM potassium phosphate pH 7.8, 20% glycerol, 25 mM EDTA. The final concentration of SPA beads is 1.0 mg/mL. After the plate sealing, plates were shaken overnight at room temperature and centrifuged at 1500 rpm for 10 min, the radioactivity of the product was determined by scintillation counting on Topcount (PerkinElmer). IC50 determination was performed by fitting the curve of percent of the solvent control activity versus the log of the inhibitor concentration using the GraphPad Prism 6.0 software.
(§3) The compounds of the Examples were tested in the assays described in Examples A, B and C and found to have the IC50s are shown in Tables A1, A2, A3 and A4.

[2] = target: PI3Kγ (p110γ) Recombinant Human Protein (Homo sapiens (Human), UniProt P48736); assay: PI3K-γ scintillation proximity assay; format: biochemical; conditions: scintillation proximity assay, recombinant human p110γ
From the text: Example B. PI3K-γ Scintillation Proximity Assay
as §1, with “PI3Kγ (p110γ)” for “PI3Kδ (p1106/p85a)”, “Life technology (Grand Island, NY).” for “Eurofins (St Charles, MO).”
as §2, with “[…].” for “μL.”, “PI3Kγ” for “PI3Kδ”, “13” for “3.4”, “PI3Kγ.” for “PI3Kδ.”, “(Perkin-Elmer).” for “(PerkinElmer).”
as §3

PI3Kδ (p1106/p85a) Recombinant Human Protein, sequence (O00329 whole entry): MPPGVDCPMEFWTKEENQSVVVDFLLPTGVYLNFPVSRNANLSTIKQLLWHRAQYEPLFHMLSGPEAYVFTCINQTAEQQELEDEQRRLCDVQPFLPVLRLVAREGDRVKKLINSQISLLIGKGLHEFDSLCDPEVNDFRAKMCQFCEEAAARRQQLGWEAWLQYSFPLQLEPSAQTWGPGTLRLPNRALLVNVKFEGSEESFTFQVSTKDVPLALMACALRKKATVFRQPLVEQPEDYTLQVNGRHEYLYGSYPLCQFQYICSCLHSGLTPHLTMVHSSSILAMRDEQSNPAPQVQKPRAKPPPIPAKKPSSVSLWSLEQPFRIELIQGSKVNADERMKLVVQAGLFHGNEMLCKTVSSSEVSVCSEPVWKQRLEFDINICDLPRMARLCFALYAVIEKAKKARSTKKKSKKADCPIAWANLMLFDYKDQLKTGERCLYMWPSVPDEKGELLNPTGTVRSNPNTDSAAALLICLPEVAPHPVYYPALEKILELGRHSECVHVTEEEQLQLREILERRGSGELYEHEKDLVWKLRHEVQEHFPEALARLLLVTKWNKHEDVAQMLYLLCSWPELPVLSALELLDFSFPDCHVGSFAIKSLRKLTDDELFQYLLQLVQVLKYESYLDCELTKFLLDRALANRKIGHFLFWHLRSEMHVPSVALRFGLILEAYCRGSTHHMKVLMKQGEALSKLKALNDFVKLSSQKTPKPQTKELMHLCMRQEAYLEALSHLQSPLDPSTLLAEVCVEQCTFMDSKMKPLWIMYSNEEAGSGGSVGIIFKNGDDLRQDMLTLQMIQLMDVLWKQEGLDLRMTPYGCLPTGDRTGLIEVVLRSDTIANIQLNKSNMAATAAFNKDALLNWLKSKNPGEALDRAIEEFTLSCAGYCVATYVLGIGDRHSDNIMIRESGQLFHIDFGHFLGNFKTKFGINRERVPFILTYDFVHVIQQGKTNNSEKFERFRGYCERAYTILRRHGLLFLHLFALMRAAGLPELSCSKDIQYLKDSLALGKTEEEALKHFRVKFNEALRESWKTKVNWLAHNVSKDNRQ
PI3Kδ (p1106/p85a) Recombinant Human Protein, sequence (P27986 whole entry partner): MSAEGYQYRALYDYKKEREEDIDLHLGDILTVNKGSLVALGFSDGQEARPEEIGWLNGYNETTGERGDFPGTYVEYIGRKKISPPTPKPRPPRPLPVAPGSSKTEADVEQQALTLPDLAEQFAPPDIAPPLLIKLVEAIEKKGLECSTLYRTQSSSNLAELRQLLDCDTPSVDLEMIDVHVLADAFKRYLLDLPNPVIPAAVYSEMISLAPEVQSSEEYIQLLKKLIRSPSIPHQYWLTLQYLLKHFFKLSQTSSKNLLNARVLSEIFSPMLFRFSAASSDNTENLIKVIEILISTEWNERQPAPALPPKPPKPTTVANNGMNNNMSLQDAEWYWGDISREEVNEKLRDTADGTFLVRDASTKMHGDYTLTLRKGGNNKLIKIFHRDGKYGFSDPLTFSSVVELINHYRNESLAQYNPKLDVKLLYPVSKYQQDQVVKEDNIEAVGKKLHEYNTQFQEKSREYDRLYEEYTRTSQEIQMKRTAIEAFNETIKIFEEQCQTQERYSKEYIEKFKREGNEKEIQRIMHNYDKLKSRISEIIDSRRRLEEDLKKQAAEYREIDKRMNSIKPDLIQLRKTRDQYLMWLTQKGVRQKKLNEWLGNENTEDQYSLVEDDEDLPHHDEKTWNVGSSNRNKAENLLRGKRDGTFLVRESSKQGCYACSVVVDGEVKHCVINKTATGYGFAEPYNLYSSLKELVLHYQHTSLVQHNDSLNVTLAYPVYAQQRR
PI3Kγ (p110γ) Recombinant Human Protein, sequence (P48736 whole entry): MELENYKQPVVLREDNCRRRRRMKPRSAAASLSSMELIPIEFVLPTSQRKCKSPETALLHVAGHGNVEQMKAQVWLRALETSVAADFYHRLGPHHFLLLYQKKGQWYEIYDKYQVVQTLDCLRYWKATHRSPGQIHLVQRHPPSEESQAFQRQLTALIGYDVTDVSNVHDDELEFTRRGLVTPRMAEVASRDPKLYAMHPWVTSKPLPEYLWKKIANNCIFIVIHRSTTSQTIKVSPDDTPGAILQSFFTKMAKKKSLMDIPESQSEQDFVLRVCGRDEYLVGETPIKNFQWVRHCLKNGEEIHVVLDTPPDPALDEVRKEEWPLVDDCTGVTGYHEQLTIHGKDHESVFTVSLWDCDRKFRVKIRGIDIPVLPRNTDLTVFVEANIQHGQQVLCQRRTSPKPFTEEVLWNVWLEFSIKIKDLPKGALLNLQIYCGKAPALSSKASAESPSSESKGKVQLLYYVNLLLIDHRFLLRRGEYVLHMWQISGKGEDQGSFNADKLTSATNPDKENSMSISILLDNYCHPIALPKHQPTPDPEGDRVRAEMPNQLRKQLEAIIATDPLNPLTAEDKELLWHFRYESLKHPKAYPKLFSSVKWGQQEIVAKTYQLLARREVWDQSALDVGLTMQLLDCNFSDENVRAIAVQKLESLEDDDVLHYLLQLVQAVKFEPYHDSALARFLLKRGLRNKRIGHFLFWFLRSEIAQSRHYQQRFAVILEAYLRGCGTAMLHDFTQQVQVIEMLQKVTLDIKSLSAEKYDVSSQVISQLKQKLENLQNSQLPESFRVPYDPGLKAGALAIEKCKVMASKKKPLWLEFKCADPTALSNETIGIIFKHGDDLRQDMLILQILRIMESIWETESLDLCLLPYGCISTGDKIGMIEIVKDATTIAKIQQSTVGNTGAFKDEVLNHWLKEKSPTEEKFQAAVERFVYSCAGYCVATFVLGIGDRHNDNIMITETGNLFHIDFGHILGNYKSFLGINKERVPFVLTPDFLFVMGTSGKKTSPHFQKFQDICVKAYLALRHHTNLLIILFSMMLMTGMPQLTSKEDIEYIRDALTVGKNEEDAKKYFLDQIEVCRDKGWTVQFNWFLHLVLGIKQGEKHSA

Row | SMILES | IC50 ([1]; Table A1) [nM] | IC50 ([2]; Table A1) [nM] | IC50 ([1]; Table A2) [nM] | IC50 ([2]; Table A2) [nM]
1 | Cc1ccc(C(O)(C(N)=O)C(F)F)cc1-c1cnc(N)c(C(=O)NC2CCOCC2)n1 (stereo not drawn) [Example 36, 3-amino-6-(5-(1-amino-3,3-difluoro-2-hydroxy-1-oxopropan-2-yl)-2-methylphenyl)-N-(tetrahydro-2H-pyran-4-yl)pyrazine-2-carboxamide] | < 100 | < 100 | – | –
2 | Cc1ccc(C(O)(C(N)=O)C(F)F)cc1-c1cnc(N)c(C(=O)NCCC2CCOC2)n1 (stereo not drawn) [Example 37, 3-amino-6-(5-(1-amino-3,3-difluoro-2-hydroxy-1-oxopropan-2-yl)-2-methylphenyl)-N-(2-(tetrahydrofuran-3-yl)ethyl)pyrazine-2-carboxamide] | < 100 | < 100 | – | –
3 | Cc1ccc(C(O)(C(N)=O)C(F)(F)F)cc1-c1cnc(N)c(C(=O)NCC(F)(F)F)n1 (stereo not drawn) [Example 38, 3-Amino-6-(5-(3-amino-1,1,1-trifluoro-2-hydroxy-3-oxopropan-2-yl)-2-methylphenyl)-N-(2,2,2-trifluoroethyl)pyrazine-2-carboxamide trifluoroacetate] | < 100 | < 100 | – | –
4 | Cc1ccc(C(O)(CNC(=O)C(C)(C)O)C(F)(F)F)cc1-c1cnc(N)c(C(=O)NC(C)C)n1 (stereo not drawn) [Example 41, 3-Amino-N-isopropyl-6-(2-methyl-5-(1,1,1-trifluoro-2-hydroxy-3-(2-hydroxy-2-methylpropanamido)propan-2-yl)phenyl)pyrazine-2-carboxamide trifluoroacetate] | 100 to 500 | < 100 | – | –
5 | C/C=C\c1nc(-c2cc(C(O)(C(N)=O)C(F)(F)F)ccc2C)cnc1N (stereo not drawn) [Example 44, (Z)-2-(3-(5-amino-6-(prop-1-en-1-yl)pyrazin-2-yl)-4-methylphenyl)-3,3,3-trifluoro-2-hydroxypropanamide] | – | – | 100 to 500 | < 100
6 | Cc1ccc(C(O)(C(N)=O)C(F)(F)F)cc1-c1cnc(N)c(C(F)(F)F)n1 (stereo not drawn) [Example 46, 2-(3-(5-Amino-6-(trifluoromethyl)pyrazin-2-yl)-4-methylphenyl)-3,3,3-trifluoro-2-hydroxypropanamide trifluoroacetate] | – | – | 100 to 500 | < 100
7 | COCC#Cc1nc(-c2cc(C(O)(C(N)=O)C(F)(F)F)ccc2C)cnc1N (stereo not drawn) [Example 47, 2-(3-(5-amino-6-(3-methoxyprop-1-ynyl)pyrazin-2-yl)-4-methylphenyl)-3,3,3-trifluoro-2-hydroxypropanamide trifluoroacetate] | – | – | < 100 | < 100
8 | Cc1ccc(C(O)(C(N)=O)C(F)(F)F)cc1-c1cnc(N)c(C#CC2CC2)n1 (stereo not drawn) [Example 48, 2-(3-(5-amino-6-(cyclopropylethynyl)pyrazin-2-yl)-4-methylphenyl)-3,3,3-trifluoro-2-hydroxypropanamide] | – | – | < 100 | < 100
9 | Cc1ccc(C(O)(C(N)=O)C(F)(F)F)cc1-c1cnc(N)c(C#CC(C)(C)O)n1 (stereo not drawn) [Example 50, 2-(3-(5-amino-6-(3-hydroxy-3-methylbut-1-ynyl)pyrazin-2-yl)-4-methylphenyl)-3,3,3-trifluoro-2-hydroxypropanamide] | – | – | < 100 | < 100
10 | Cc1ccc(C(O)(C(N)=O)C(F)(F)F)cc1-c1cnc(N)c(C#CCC(C)O)n1 (stereo not drawn) [Example 51, 2-(3-(5-amino-6-(4-hydroxypent-1-ynyl)pyrazin-2-yl)-4-methylphenyl)-3,3,3-trifluoro-2-hydroxypropanamide] | – | – | < 100 | < 100
11 | COc1cc(C#Cc2nc(-c3cc(C(O)(C(N)=O)C(F)(F)F)ccc3C)cnc2N)cc(OC)c1 (stereo not drawn) [Example 60, 2-(3-(5-amino-6-((3,5-dimethoxyphenyl)ethynyl)pyrazin-2-yl)-4-methylphenyl)-3,3,3-trifluoro-2-hydroxypropanamide] | – | – | < 100 | < 100
12 | Cc1ccc(C(O)(C(N)=O)C(F)(F)F)cc1-c1cnc(N)c(C#CC(C)(O)C(C)C)n1 (stereo not drawn) [Example 62, 2-(3-(5-amino-6-(3-hydroxy-3,4-dimethylpent-1-ynyl)pyrazin-2-yl)-4-methylphenyl)-3,3,3-trifluoro-2-hydroxypropanamide] | – | – | < 100 | < 100
13 | Cc1ccc(C(O)(C(N)=O)C(F)(F)F)cc1-c1cnc(N)c(C#CC2CCOCC2)n1 (stereo not drawn) [Example 63, 2-(3-(5-amino-6-((tetrahydro-2H-pyran-4-yl)ethynyl)pyrazin-2-yl)-4-methylphenyl)-3,3,3-trifluoro-2-hydroxypropanamide] | – | – | < 100 | < 100
14 | Cc1ccc(C(O)(C(N)=O)C(F)(F)F)cc1-c1cnc(N)c(C#CC2(C)CCOCC2)n1 (stereo not drawn) [Example 64, 2-(3-(5-amino-6-((4-methyltetrahydro-2H-pyran-4-yl)ethynyl)pyrazin-2-yl)-4-methylphenyl)-3,3,3-trifluoro-2-hydroxypropanamide] | – | – | < 100 | < 100

Results, then the compound that gave them:

Row | IC50 ([1]; Table A1) [nM] | IC50 ([2]; Table A1) [nM] | IC50 ([1]; Table A2) [nM] | IC50 ([2]; Table A2) [nM] | SMILES
15 | – | – | < 100 | < 100 | Cc1ccc(C(O)(C(N)=O)C(F)(F)F)cc1-c1cnc(N)c(C#Cc2cnn(C)c2)n1 (stereo not drawn) [Example 54, 2-(3-(5-amino-6-((1-methyl-1H-pyrazol-4-yl)ethynyl)pyrazin-2-yl)-4-methylphenyl)-3,3,3-trifluoro-2-hydroxypropanamide]
16 | – | – | < 100 | < 100 | Cc1ccc(C(O)(C(N)=O)C(F)(F)F)cc1-c1cnc(N)c(C#Cc2ccccn2)n1 (stereo not drawn) [Example 55, 2-(3-(5-amino-6-(pyridin-2-ylethynyl)pyrazin-2-yl)-4-methylphenyl)-3,3,3-trifluoro-2-hydroxypropanamide]
17 | – | – | < 100 | < 100 | Cc1ccc(C(O)(C(N)=O)C(F)(F)F)cc1-c1cnc(N)c(C#Cc2cncnc2)n1 (stereo not drawn) [Example 56, 2-(3-(5-amino-6-(pyrimidin-5-ylethynyl)pyrazin-2-yl)-4-methylphenyl)-3,3,3-trifluoro-2-hydroxypropanamide]
18 | – | – | < 100 | < 100 | Cc1ccc(C(O)(C(N)=O)C(F)(F)F)cc1-c1cnc(N)c(C#Cc2cnccn2)n1 (stereo not drawn) [Example 57, 2-(3-(5-amino-6-(pyrazin-2-ylethynyl)pyrazin-2-yl)-4-methylphenyl)-3,3,3-trifluoro-2-hydroxypropanamide]
19 | – | – | < 100 | < 100 | Cc1ccc(C(O)(C(N)=O)C(F)(F)F)cc1-c1cnc(N)c(C#Cc2ccc(C#N)cc2)n1 (stereo not drawn) [Example 58, 2-(3-(5-amino-6-((4-cyanophenyl)ethynyl)pyrazin-2-yl)-4-methylphenyl)-3,3,3-trifluoro-2-hydroxypropanamide]
20 | – | – | < 100 | < 100 | Cc1ccc(C(O)(C(N)=O)C(F)(F)F)cc1-c1cnc(N)c(C#Cc2ccc(CC#N)cc2)n1 (stereo not drawn) [Example 59, 2-(3-(5-amino-6-((4-(cyanomethyl)phenyl)ethynyl)pyrazin-2-yl)-4-methylphenyl)-3,3,3-trifluoro-2-hydroxypropanamide]
21 | – | – | < 100 | < 100 | Cc1ccc(C(O)(C(N)=O)C(F)(F)F)cc1-c1cnc(N)c(C#Cc2cccc(F)c2)n1 (stereo not drawn) [Example 61, 2-(3-(5-amino-6-((3-fluorophenyl)ethynyl)pyrazin-2-yl)-4-methylphenyl)-3,3,3-trifluoro-2-hydroxypropanamide]
